In PMC6278281, “Rosmarinic Acid Derivatives’ Inhibition of Glycogen Synthase Kinase-3β Is the Pharmacological Basis of Kangen-Karyu in Alzheimer’s Disease” (Molecules, 2018):
Values joined by “and” are separate entries in the source; they are usually repeats but may differ in a detail not shown here. Equal values may be shown once. Read-outs that look alike come from different tables or passages of the source.

Tests used:
[1] = target: Glycogen synthase kinase 3β; conditions: cited from earlier work; for Inhibition Mode / IC50: reference controls; for IC50: read-out: IC50, GSK-3β inhibition
human recombinant GSK-3β [2] = target: T1, human recombinant GSK-3β (Homo sapiens, UniProt P49841); assay: GSK-3β enzyme inhibition assay (Kinase-Glo luminescent kinase assay); format: biochemical; conditions: pure compounds, mean ± SEM of triplicate experiments
T1 construct: purchased ProSpec-Tany TechnoGene Ltd., Ness-Ziona, Israel
T1 sequence (P49841 whole entry): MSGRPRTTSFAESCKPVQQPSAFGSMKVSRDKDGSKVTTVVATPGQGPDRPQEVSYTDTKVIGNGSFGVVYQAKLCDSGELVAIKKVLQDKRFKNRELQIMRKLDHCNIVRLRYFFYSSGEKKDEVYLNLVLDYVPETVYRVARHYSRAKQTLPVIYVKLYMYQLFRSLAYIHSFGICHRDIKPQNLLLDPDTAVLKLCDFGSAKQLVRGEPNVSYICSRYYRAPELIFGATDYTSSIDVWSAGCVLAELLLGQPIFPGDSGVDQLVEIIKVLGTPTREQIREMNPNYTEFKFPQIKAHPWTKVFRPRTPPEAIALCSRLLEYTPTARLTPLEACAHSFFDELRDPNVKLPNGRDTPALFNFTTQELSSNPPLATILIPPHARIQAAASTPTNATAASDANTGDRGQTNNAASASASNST
Method: The enzymatic inhibition of GSK-3β in vitro was evaluated with human recombinant GSK-3β by using a Kinase-Glo reagent kit, according to Baki et al. [52] with a slight modification. The kinase reaction was performed in 384-well black plates. Test concentrations were prepared through serial dilution by using an assay buffer (pH 7.5) containing 50 mM HEPES, 1 mM EDTA, 1 mM EGTA, and 15 mM magnesium acetate. To initiate the reaction, 5 µL of sample, 5 µL of ATP (1 µM final concentration), 5 µL of 50 µM GSM, and 5 µL of 20 ng GSK-3β were mixed simultaneously in each well (the final DMSO concentration in the reaction mixture was less than 5%). Test samples were replaced by 5 µL of either buffer or luteolin to produce positive control (maximum activity) and negative control (total inhibition) samples. The reaction mixture was incubated at 37 °C for 30 min and was followed by the addition of the 20-µL Kinase-Glo reagent to stop the reaction. Glow-type luminescence was recorded after 10 min. The activity was proportional to the difference between total and consumed ATP. Inhibition activities were calculated on the basis of maximal activity, measured in the absence of the inhibitor, and the maximal inhibition was measured in the presence of the reference compound.

PC12 cells = tested on: PC12 cells; parameters: method as in PMID 19101570; conditions: 20 µg/mL; cited from earlier work
BACE1 = tested on: BACE1; parameters: method as in PMID 29679864; conditions: cited from earlier work
human recombinant GSK-3β [3] = target: T1, human recombinant GSK-3β; assay: GSK-3β enzyme kinetics (Lineweaver–Burk and secondary plots, varying ATP or GSM substrate); format: biochemical; conditions: for Ki: from secondary plots; for Inhibition Mode: Lineweaver–Burk plots
Method: The mode of GSK-3β enzyme inhibition by Sal B was characterized via kinetic study by using various concentrations of GSM substrate and ATP. Lineweaver–Burk plots showing reciprocal rates versus reciprocal GSM substrate/ATP concentrations (Figure 3) were deployed to explore the GSK-3β inhibition mechanism.
The GSK-3β enzyme kinetics was evaluated by using the assay method described in Section 4.4 with varying concentrations of ATP (2 µM, 1 µM, or 0.5 µM) or substrate (50 µM, 25 µM, or 12.5 µM). A Lineweaver–Burk plot was prepared by using double reciprocal plots of enzyme kinetic data. Ki values were calculated from the secondary plots.

[4] = parameters: method as in PMID 15484228, PMID 16905282; conditions: oral administration; cited from earlier work
[5] = parameters: method as in PMID 29027831; conditions: nasal administration in rats, cited from earlier work
[6] = tested on: induced pluripotent stem cells (iPSCs); parameters: method as in PMID 29421539; conditions: via the AKT/GSK-3β signaling pathway; cited from earlier work
SH-SY5Y-APPsw cells = tested on: SH-SY5Y-APPsw cells; parameters: method as in PMID 27258307; conditions: by modulating BACE1 activity; cited from earlier work
[7] = parameters: method as in PMID 21903108; conditions: induced by scopolamine or Aβ25–35; cited from earlier work
[8] = read-out: IC50 (Mean ± SEM), GSK-3β inhibition
[9] = IC50 (Mean ± SEM), GSK-3β inhibition

| IC50 (human recombinant GSK-3β [2]; [8]) | SMILES | Inhibition Mode [1] | IC50 [1] | BACE1 inhibitory activity (BACE1) | also measured |
| --- | --- | --- | --- | --- | --- |
| – | COc1ccc(CNC(=O)Nc2ncc([N+](=O)[O-])s2)cc1 [AR-A014418] | ATP-competitive [30] | 0.1 µM | – | Ki ([1]; reference control): 0.03 µM |
| – | O=C1Cc2c([nH]c3ccc([N+](=O)[O-])cc23)-c2ccccc2N1 [Alsterpaullone] | ATP-competitive [31] | 0.004 µM | – | – |
| 425 ± 7.61 µM | O=C(O)/C=C/c1ccc(O)c(O)c1 [Caffeic acid] | – | – | – | phosphorylation of GSK-3β and tau protein (PC12 cells): decreases the phosphorylation of GSK-3β and tau protein |
| – | O=C1Nc2ccccc2/C1=C1/Nc2ccccc2C1=O [Indirubin] | ATP-competitive [32] | 0.6 µM | – | – |
| – | O=c1cc(-c2ccc(O)c(O)c2)oc2cc(O)cc(O)c12 [Luteolin, reference compound] | – | – | – | IC50 (human recombinant GSK-3β [2]; [9]): 2.18 ± 0.13 µM |
| ~30 µM and 33.1 µM | O=C(/C=C/c1ccc(O)c2c1[C@H](C(=O)O[C@H](Cc1ccc(O)c(O)c1)C(=O)O)[C@@H](c1ccc(O)c(O)c1)O2)O[C@H](Cc1ccc(O)c(O)c1)C(=O)O [Magnesium lithospermate B] | – | – | potent activity | – |
| ~30 µM and 30.2 µM | O=C(/C=C/c1ccc(O)c(O)c1/C=C/c1ccc(O)c(O)c1)O[C@H](Cc1ccc(O)c(O)c1)C(=O)O [Salvianolic acid A] | – | – | potent activity | – |
| – | O=C(C=Cc1ccc(O)c2c1C(C(=O)OC(Cc1ccc(O)c(O)c1)C(=O)O)C(c1ccc(O)c(O)c1)O2)OC(Cc1ccc(O)c(O)c1)C(=O)O (stereo not drawn) [Salvianolic acid B] | – | – | – | IC50 (human recombinant GSK-3β [2]; [9]): 6.97 ± 0.96 µM; Ki (human recombinant GSK-3β [3]; ATP-competitive inhibition, constant GSM substrate (25 μM), varying ATP (0.5, 1, 2 μM)): 5.44 µM; Ki (human recombinant GSK-3β [3]; muscle glycogen synthase (GSM)-competitive inhibition, constant ATP (1 μM), varying GSM substrate (12.5, 25, 50 μM)): 6.32 µM; Inhibition Mode (human recombinant GSK-3β [3]): ATP-competitive; Inhibition Mode (human recombinant GSK-3β [3]; listed as Sal B): ATP-competitive and GSM substrate–competitive; time to maximum plasma concentration [4]: 0.5 to 1 h; time traceable after administration [4]: up to 180 min; brain-targeting efficacy ([5]; compared to intravenous and oral administration): 5.54; bioavailability [5]: 43.98%; proliferation and differentiation into neurons of iPSCs [6]: potently improved; Aβ generation (SH-SY5Y-APPsw cells): inhibited Aβ generation; cognitive impairments [7]: reverses cognitive impairments |
| ~30 µM and 31.8 µM | O=C(/C=C/c1ccc(O)c2oc(-c3ccc(O)c(O)c3)cc12)O[C@H](Cc1ccc(O)c(O)c1)C(=O)O [Salvianolic acid C] | – | – | potent activity | – |

| SMILES | IC50 (human recombinant GSK-3β [2]; [8]) | Inhibition Mode [1] | IC50 [1] | BACE1 inhibitory activity (BACE1) | also measured |
| --- | --- | --- | --- | --- | --- |
| O=C(/C=C/c1ccc(O)c(O)c1)O[C@H](Cc1ccc(O)c(O)c1)C(=O)O [Rosmarinic acid] | 135 ± 4.69 µM | – | – | potent activity | – |
